This note sets out measurements from ChEMBL document CHEMBL1201862, “PubChem BioAssay data set” (2004).

The structures appear in SMILES notation. Calls of active or inactive are those of the source. Where only a bound is given, the exact number is not on record here.

Assay [1] addresses T1, Tyrosine-protein phosphatase non-receptor type 7 (Homo sapiens, UniProt P35236).
T1 sequence (P35236 whole entry): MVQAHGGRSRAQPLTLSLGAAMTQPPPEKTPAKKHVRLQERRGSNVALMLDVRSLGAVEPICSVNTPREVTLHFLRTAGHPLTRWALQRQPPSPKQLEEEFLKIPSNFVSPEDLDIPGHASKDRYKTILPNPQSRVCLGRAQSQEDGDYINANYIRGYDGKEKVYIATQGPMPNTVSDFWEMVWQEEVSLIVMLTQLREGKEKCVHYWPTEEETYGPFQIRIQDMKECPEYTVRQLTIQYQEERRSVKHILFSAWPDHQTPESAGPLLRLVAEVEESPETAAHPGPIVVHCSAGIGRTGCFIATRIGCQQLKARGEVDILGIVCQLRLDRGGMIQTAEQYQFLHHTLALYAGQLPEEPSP
In words: inhibitors of human HePTP phosphatase, […], biochemical, absorbance, leukemia target (AID 521). The class given is functional.

Assay [2] deals with Diphosphomevalonate decarboxylase (Streptococcus pneumoniae serotype 2 (strain D39 / NCTC 7466), UniProt Q9FD53). In words: S. pneumoniae DPM-DC inhibition retest, confirmation, biochemical, cuvette format, coupled NADH fluorescence (AID 1028). The format is functional.
The target in assay [3] is Ubiquitin carboxyl-terminal hydrolase BAP1 (Homo sapiens, UniProt Q92560). Briefly: BAP1 deubiquitinase inhibitors, dose response, biochemical (AID 714). The format is functional.
Assay [4] deals with G-protein coupled receptor 55 (Homo sapiens, UniProt Q9Y2T6). In words: GPR55 antagonists blocking LPI-driven arrestin recruitment, primary screen, imaging, U2OS, beta-arrestin-GFP, LPI agonist (AID 2013).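 Note: antagonist potency measured as reduced agonist-driven arrestin aggregation.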 The format is functional.
Assay [5] addresses E3 ubiquitin-protein ligase Mdm2 (Homo sapiens, UniProt Q00987). Briefly: enhancers of MDM2-luciferase reporter signal, concentration-effect titration, project on inhibitors of MDM2 ubiquitin ligase, cellular assay, luminescent readout, 384-well plate format (AID 1394).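 Note: MDM2 E3 inhibitors raise luminescence so EC50 is for signal enhancement.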 The class given is functional.
The next assay concerns the target T2, Protein RecA (Mycobacterium tuberculosis, UniProt P9WHJ3).
T2 sequence (P9WHJ3 whole entry): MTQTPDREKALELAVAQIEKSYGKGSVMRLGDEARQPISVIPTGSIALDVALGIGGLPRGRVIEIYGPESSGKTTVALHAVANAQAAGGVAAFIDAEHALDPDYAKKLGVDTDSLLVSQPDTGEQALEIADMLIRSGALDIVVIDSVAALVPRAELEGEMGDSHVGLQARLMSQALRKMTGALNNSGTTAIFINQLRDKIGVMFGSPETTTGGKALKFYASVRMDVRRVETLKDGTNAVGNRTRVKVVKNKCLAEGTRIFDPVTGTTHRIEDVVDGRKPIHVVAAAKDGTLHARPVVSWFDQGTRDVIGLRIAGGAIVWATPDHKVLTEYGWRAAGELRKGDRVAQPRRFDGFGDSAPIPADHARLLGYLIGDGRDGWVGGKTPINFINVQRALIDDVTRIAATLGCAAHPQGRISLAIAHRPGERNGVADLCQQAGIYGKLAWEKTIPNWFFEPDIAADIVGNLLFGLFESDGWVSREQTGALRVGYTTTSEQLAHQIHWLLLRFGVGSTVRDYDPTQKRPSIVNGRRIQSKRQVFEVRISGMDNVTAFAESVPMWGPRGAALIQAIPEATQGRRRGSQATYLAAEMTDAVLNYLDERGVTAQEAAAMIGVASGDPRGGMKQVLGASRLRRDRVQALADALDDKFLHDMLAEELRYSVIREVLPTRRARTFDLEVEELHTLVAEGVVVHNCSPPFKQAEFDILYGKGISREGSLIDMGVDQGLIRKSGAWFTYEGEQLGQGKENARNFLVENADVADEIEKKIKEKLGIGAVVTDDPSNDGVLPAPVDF
In words: Fluorescence Cell-Free Homogeneous Dose Retest to Identify Inhibitors of RecA-Intein Splicing Activity. [Related pubchem assays (depositor defined):AID2097, AID2223, AID489010, AID492950]. The format is functional.

Assay [6] deals with T3, Replicative DNA helicase DnaB (Mycobacterium tuberculosis, UniProt P9WMR3).
T3 sequence (P9WMR3 whole entry): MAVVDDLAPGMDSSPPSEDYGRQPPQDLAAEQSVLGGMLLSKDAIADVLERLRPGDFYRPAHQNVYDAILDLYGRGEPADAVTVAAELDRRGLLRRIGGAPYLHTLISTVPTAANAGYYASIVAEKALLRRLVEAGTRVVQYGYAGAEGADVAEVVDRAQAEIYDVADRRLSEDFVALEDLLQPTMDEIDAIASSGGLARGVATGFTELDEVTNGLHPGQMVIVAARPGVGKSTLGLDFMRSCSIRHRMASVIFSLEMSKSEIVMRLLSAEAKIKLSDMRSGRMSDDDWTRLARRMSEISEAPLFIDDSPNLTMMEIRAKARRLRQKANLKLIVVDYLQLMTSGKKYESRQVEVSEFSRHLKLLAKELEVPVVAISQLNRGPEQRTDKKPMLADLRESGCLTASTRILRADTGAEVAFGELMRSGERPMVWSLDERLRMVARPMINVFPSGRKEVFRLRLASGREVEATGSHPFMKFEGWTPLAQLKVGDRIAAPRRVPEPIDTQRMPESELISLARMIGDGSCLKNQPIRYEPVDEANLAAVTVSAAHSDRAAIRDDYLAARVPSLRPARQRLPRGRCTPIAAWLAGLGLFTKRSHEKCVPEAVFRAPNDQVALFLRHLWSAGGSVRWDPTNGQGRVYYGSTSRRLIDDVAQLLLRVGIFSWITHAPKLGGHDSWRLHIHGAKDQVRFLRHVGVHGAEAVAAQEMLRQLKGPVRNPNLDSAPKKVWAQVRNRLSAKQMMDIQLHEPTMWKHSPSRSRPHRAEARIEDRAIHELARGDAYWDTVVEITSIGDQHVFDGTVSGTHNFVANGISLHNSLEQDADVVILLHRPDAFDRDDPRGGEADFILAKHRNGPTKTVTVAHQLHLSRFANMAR
In words: DnaB intein splicing inhibitors, dose response, biochemical, cell-free fluorescence (AID 449749). The class given is functional.

A short description of assay [7]: cells. The class given is functional, cell-based.
A short description of assay [8]: cells.
The target of assay [9] is T4, Nuclear receptor subfamily 0 group B member 1 (Homo sapiens, UniProt P51843).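 Note: HEK293T cells transfected with SF-1 and DAX-1 plus StAR promoter luciferase reporter.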
T4 sequence (P51843 whole entry): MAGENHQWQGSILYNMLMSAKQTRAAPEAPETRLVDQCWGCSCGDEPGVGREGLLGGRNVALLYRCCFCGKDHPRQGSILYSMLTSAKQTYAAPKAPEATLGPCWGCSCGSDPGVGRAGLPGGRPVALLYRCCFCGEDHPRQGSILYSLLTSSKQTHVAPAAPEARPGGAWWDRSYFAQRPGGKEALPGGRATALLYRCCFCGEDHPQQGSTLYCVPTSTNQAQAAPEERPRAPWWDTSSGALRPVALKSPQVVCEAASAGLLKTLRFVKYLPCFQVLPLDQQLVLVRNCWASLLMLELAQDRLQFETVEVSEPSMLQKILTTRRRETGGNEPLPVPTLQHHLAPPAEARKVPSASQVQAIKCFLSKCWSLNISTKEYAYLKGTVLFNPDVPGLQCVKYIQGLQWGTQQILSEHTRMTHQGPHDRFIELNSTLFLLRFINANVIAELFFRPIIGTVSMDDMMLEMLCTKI
The format is functional, cell-based.

The target in assay [10] is Voltage-gated inwardly rectifying potassium channel KCNH2 (Homo sapiens, UniProt Q12809). Briefly: hERG protection from proarrhythmic block, potency, dose response, cell-based, thallium flux (AID 2121). The class given is ADME.
The target of another assay is Major prion protein (Homo sapiens, UniProt P04156). The class given is functional, cell-based.
For assay [11], the target named is T5, Neuropeptide Y receptor type 2 (Homo sapiens, UniProt P49146). Briefly: NPY-Y2 antagonist potency, selectivity check, dose response, counter-screen for NPY-Y1 antagonist project, cell-based (AID 1278). The format is functional.
For assay [12], the target named is T6, Neuropeptide Y receptor type 1 (Homo sapiens, UniProt P25929). In words: NPY-Y1 receptor antagonist potency, dose response, cell-based (AID 1277). The class given is functional.
Assay [13] deals with T7, Rac GTPase-activating protein 1 (Homo sapiens, UniProt Q9H0H5).
T7 sequence (Q9H0H5 whole entry): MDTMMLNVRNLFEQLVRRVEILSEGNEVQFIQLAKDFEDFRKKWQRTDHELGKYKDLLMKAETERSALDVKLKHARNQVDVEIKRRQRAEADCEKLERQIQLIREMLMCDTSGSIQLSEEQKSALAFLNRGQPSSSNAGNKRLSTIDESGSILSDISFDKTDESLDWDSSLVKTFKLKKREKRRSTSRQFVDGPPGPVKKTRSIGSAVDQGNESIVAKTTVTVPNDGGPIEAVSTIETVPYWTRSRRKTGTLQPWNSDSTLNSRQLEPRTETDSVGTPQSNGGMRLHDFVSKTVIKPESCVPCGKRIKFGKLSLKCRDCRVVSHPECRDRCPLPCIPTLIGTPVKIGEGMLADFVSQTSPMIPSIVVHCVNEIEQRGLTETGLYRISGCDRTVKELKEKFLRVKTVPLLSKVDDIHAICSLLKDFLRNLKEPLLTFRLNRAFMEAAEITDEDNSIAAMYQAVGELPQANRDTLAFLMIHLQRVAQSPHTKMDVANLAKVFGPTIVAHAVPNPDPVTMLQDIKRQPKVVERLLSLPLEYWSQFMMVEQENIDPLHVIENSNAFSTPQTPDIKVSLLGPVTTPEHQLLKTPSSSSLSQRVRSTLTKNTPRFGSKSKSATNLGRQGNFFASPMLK
In words: MgcRacGAP GTPase-activating activity inhibitors, confirmation, biochemical, ADP Hunter fluorescence, primary and confirmatory (AID 624330). The class given is functional.

Assay [14] addresses Protein-tyrosine kinase 2-beta (Homo sapiens, UniProt Q14289).
For assay [15], the target named is T6, Neuropeptide Y receptor type 1. The class given is functional.
A short description of assay [16]: inhibitors of intracellular T. cruzi replication, confirmation, NIH3T3 host cells, beta-gal luminescence (AID 2044).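 Note: intracellular parasites grown in NIH/3T3 mouse fibroblasts as host cells; luminescent beta-galactosidase reporter signal from transgenic T. cruzi replicating inside host cells; inhibitors lower the luminescence signal.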 The format is functional, cell-based.
Assay [17] has as its target T5, Neuropeptide Y receptor type 2. The format is functional, cell-based.
Assay [18] is described as follows: Luminescence Cell-Based Dose Retest to Confirm Inhibitors of Cancer Stem Cells. [Related pubchem assays (depositor defined):AID2717, AID2721]. The class given is functional. To be noted: Homo sapiens.
A short description of assay [19]: cytotoxicity toward NIH3T3 fibroblasts, dose response, counter-screen, cell-based, ATP luminescence, mouse fibroblasts (AID 2010).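 Note: cells exposed to compound for about 90 hours before reading.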 The format is functional.
The target of assay [20] is T8, Calpain-2 catalytic subunit (Sus scrofa, UniProt P43367).
T8 sequence (P43367 whole entry): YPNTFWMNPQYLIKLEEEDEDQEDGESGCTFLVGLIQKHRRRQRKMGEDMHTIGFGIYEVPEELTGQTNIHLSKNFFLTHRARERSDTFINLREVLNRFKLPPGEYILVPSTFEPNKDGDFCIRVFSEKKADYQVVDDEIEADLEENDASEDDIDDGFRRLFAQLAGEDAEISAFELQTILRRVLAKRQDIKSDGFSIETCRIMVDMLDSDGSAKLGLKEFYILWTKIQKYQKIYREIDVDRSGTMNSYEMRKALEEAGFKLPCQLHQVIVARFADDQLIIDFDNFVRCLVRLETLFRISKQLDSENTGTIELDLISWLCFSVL
In words: pig calpain II inhibitor potency, dose response, biochemical, fluorogenic peptide substrate (AID 1420). The class given is functional.

The next assay has as its target Mucolipin-3 (Homo sapiens, UniProt Q8TDD5). In words: Dose response cell-based high-throughput screening assay for agonists of the transient receptor potential channel ML3 (TRPML3). [Related pubchem assays: 1526, 1424, 1448 ]. The class given is functional.
Assay [21] addresses T9, Ion channel NompC (Danio rerio, UniProt Q7T1G6). In words: Fluorescence counterscreen assay for TRPML3 agonists: dose response cell-based high-throughput screening assay to identify agonists of the transient receptor potential channel N1 (TRPN1). [Related pubchem assays: 1526, 1424, 1448 ]. The class given is functional.
The target in assay [22] is T9, Ion channel NompC. In words: Late stage counterscreen for the probe development effort to identify selective agonists of the Transient Receptor Potential Channels 3 (TRPML3): fluorescence-based cell-based dose response assay for TRPN1 agonists. The format is functional.

T6 sequence (P25929 whole entry): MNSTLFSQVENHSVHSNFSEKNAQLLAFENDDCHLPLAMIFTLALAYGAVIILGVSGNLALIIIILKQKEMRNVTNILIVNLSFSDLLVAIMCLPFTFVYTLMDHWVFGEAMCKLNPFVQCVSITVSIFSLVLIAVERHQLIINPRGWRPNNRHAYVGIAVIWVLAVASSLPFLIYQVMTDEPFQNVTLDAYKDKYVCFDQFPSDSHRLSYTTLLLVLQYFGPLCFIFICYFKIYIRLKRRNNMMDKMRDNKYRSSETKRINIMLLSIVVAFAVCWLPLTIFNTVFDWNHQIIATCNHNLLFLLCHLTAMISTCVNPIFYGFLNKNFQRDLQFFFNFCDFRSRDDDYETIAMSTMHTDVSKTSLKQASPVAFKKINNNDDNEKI
T9 sequence (Q7T1G6 whole entry): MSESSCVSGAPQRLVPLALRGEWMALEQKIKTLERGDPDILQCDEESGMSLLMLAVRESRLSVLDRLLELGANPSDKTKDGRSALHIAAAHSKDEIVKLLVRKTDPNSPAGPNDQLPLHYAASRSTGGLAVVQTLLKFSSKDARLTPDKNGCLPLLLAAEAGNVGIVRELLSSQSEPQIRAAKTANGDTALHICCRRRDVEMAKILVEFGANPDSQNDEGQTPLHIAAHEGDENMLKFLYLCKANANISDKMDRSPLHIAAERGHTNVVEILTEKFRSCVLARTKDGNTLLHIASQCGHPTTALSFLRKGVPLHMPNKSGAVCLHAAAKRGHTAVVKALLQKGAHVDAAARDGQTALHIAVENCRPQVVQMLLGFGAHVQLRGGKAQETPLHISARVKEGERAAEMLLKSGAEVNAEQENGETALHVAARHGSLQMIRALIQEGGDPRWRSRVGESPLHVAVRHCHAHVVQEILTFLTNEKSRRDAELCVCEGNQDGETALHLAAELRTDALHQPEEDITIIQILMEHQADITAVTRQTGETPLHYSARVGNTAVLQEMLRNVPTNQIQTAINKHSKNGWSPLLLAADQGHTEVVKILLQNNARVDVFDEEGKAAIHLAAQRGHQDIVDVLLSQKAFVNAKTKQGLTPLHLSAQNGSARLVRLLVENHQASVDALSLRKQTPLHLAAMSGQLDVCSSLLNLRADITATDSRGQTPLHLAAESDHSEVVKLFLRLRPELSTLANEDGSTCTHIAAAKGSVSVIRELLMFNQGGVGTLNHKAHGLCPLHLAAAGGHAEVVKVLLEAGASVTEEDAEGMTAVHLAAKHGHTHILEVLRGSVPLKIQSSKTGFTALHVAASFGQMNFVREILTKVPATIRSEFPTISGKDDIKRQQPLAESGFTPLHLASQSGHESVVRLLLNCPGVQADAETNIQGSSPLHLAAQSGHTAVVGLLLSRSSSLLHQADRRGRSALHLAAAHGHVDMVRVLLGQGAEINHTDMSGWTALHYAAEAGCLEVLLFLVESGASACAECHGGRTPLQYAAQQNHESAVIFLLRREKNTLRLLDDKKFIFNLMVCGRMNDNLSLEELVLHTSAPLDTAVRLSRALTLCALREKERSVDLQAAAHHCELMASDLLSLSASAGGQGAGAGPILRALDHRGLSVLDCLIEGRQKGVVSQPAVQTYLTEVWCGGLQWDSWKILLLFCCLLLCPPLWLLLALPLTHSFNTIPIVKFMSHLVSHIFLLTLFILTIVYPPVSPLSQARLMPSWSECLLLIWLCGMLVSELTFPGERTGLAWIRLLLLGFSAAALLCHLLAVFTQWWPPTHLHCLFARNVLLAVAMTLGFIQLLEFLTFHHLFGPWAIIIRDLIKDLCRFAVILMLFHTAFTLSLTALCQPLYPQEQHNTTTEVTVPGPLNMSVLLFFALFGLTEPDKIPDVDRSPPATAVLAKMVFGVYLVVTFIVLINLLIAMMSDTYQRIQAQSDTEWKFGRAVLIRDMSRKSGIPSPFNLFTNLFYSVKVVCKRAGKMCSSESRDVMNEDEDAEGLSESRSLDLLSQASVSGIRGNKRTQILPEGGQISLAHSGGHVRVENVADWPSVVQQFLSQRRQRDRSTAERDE
T5 sequence (P49146 whole entry): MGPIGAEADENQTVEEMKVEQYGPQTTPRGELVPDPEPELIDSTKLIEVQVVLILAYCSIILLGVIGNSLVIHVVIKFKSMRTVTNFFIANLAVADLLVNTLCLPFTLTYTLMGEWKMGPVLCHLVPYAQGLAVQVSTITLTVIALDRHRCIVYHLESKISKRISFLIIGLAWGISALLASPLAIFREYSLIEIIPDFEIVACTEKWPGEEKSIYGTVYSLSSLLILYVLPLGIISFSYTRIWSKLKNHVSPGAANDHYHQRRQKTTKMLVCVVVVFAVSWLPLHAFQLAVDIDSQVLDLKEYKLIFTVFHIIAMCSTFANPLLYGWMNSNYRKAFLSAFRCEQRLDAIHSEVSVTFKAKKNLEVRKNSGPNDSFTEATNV
Chain of E3 ubiquitin-protein ligase Mdm2 (Q00987 whole entry): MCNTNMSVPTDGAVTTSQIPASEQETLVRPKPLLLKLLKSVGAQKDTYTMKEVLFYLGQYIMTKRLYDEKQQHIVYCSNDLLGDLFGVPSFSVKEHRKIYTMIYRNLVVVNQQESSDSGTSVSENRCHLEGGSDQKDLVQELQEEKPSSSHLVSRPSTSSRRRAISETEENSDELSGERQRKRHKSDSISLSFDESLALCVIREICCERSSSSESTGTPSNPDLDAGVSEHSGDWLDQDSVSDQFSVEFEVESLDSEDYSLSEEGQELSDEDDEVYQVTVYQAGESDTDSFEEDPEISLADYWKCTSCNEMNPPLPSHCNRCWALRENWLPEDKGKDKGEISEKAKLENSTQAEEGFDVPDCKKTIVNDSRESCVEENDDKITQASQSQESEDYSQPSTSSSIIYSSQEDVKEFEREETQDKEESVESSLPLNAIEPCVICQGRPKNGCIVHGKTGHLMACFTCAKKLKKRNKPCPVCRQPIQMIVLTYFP
Chain of Protein-tyrosine kinase 2-beta (Q14289 whole entry): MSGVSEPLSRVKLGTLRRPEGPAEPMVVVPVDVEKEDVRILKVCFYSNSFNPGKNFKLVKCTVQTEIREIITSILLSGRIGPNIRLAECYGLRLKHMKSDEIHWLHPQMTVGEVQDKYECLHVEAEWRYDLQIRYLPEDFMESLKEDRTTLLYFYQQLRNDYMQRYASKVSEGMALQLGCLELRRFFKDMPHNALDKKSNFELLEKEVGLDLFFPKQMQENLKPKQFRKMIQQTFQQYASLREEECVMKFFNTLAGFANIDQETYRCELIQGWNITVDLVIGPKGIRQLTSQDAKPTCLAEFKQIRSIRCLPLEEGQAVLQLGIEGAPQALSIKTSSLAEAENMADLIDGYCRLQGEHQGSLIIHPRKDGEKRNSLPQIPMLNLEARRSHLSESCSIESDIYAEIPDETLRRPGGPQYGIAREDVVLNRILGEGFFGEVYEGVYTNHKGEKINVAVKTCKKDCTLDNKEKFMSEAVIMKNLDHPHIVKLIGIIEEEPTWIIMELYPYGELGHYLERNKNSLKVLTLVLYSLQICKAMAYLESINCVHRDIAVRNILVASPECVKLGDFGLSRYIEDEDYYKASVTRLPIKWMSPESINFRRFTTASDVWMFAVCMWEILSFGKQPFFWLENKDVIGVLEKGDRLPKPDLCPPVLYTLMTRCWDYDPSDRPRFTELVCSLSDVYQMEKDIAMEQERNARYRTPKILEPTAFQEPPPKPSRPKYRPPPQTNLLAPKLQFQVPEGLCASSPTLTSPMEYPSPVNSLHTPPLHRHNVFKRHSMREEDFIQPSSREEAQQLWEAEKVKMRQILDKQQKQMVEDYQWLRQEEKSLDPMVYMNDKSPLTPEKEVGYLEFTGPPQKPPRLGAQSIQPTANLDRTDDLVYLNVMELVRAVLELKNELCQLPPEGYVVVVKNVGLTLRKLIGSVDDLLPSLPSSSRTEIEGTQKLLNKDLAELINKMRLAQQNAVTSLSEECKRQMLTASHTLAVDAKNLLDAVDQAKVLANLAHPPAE
Chain of Diphosphomevalonate decarboxylase (Q9FD53 whole entry): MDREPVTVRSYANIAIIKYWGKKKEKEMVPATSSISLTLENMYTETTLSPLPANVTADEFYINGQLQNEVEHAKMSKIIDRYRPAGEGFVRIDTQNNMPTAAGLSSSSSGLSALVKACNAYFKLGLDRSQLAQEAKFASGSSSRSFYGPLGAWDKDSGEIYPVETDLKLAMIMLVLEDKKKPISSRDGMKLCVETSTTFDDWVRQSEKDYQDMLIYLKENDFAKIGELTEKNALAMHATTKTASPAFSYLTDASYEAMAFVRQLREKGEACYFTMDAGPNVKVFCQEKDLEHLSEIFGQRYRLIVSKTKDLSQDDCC
Chain of Mucolipin-3 (Q8TDD5 whole entry): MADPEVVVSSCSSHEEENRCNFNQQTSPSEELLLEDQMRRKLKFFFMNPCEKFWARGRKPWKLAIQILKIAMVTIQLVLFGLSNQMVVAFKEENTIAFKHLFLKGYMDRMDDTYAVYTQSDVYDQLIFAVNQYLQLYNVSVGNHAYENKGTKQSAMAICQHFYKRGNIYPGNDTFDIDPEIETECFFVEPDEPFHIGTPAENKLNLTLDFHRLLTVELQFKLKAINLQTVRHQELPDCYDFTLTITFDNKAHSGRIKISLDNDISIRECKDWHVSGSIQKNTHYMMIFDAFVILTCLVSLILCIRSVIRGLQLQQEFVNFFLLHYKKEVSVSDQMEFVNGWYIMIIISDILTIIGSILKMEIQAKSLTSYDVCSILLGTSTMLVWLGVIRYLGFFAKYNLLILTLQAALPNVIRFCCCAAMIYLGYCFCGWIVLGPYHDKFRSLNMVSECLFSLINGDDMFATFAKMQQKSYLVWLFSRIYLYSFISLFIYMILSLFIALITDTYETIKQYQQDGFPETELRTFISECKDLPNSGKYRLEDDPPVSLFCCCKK

For `Cc1cnn(C(=S)NCc2ccc(Cl)cc2)c1`, the IC50 in assay [1] is listed as > 100 µM (not active).
As for `CCCNC(=O)c1ccccc1-n1sc2ccccc2c1=O`, the IC50 in assay [2] was 31.3 µM (active).
As to `CCCCn1c2c(c3ccccc31)CCc1nonc1-2`, in assay [3], the IC50 is > 50 µM (not active).
With `CN(C(=O)c1cccc(COc2ccc(Cl)cc2Cl)c1)c1ccccc1`, in [4], the IC50 was 2.2 µM (active). The figures for the EC50 (in [5]; at Protein RecA) were 0.16 µM (active) and 7.59 µM (active), respectively. Also, in assay [6], the AC50 is 10.6 µM (active).
On to `O=C(COc1ccc2ccccc2c1Br)Nc1cccnc1`, for which the IC50 in “cells [7]” was > 67.5 µM (inactive); in the assay “cells [8]” it was > 138 µM (inactive); in assay [9] it was > 67.5 µM (inactive); on Major prion protein it was 5.81 µM (active). The EC50 in assay [10] is 0.24 µM (active).
As to `COc1ccc(Oc2c[nH]nc2-c2ccc(O)cc2O)cc1`, the values for the IC50 in assay [11], in assay [12] and in assay [13] were > 35 µM (not active), > 35 µM (not active) and 28.3 µM (active), respectively.
Regarding `O=C(OCCN=C1NS(=O)(=O)c2ccccc21)c1cccnc1`, in assay [14], the half-inhibitory concentration (IC50) is recorded as > 69.5 µM (not active).
As for `CN1CCN(c2ccccc2NC(=O)c2ccc(-c3ccc(Cl)cc3Cl)o2)CC1`, the concentration for half-maximal inhibition (IC50) in assay [15] was 4.46 µM (active); in assay [17], > 12 µM (not active). Also, the EC50 is 1.06 µM (active) in [16] and > 60 µM (not active) in [19]. For the same molecule, the AC50 in [18] was 3.09 µM (active).
On to `CCOc1ccc(S(=O)(=O)N2CCCCC2)c(C)c1C`, for which, in [20], the IC50 is recorded as 32.6 µM (not active). Besides, the EC50 on Mucolipin-3 was 1.43 µM (active); on Ion channel NompC [21], > 29.9 µM (not active); on Ion channel NompC [22] it was > 29.9 µM (not active).
